In ChEMBL document CHEMBL2385065, “Antiproliferative homoscalarane sesterterpenes from two Madagascan sponges” (Bioorg Med Chem, 2013):
pIC50: −log10 of the molar value.

Legend:
Format in all cases: functional, cell-based
[1] = Cytotoxicity against human H522-T1 cells after 96 hrs by CellTire-Glo luminescent assay; conditions: H522-T1, 96 h
[2] = tested on: A2780; experiment: Cytotoxicity against human A2780 cells after 2 days by alamar Blue assay; conditions: A2780, 48 h
[3] = tested on: A2058; experiment: Cytotoxicity against human A2058 cells after 96 hrs by CellTire-Glo luminescent assay; conditions: A2058, 96 h

SMILES	pIC50 [1]	pIC50 [2]	pIC50 [3]
CC1(O)OC(=O)C2=C1CC[C@H]1[C@]3(C)CC[C@H]4C(C)(C)CCC[C@]4(CO)[C@H]3C[C@@H](O)[C@]21C (stereo partly specified)	< 5.00	5.06	< 5.00
CC(=O)O[C@H]1C[C@H]2[C@@](C)(CC[C@H]3C(C)(C)CCC[C@@]32CO)[C@@H]2CC=C(C(C)=O)[C@H](C=O)[C@@]12C		6.19	
CC(=O)C1=CC[C@H]2[C@]3(C)CC[C@H]4C(C)(C)CCC[C@]4(CO)[C@H]3C[C@@H](O)[C@]2(C)[C@H]1C=O (relative stereo)	6.21	6.55	< 6.43
CC1(C)CCC[C@@]2(CO)[C@H]1CC[C@]1(C)[C@@H]2C[C@@H](O)[C@]2(C)[C@H]3C=CC(=O)C3=CC[C@@H]12 (relative stereo)	5.28	5.35	5.38
CC(=O)C1=CC[C@H]2[C@]3(C)CC[C@H]4C(C)(C)CCC[C@]4(CO)[C@H]3C[C@H](O)[C@]2(C)[C@@H]1C=O (relative stereo)	5.77	6.59	5.74
CC(=O)O[C@H]1C(=O)[C@@]2(C)[C@H]([C@H](OC(=O)c3ccccc3)[C@]3(O)C[C@H](OC(=O)[C@H](O)[C@@H](NC(=O)c4ccccc4)c4ccccc4)C(C)=C1C3(C)C)[C@]1(OC(C)=O)CO[C@@H]1C[C@@H]2O [PACLITAXEL]	8.09	7.92	8.33
